# Where two headings read alike, the source gives them in different places.
# Legend:
# HepG2 cells = experiment: WST-1 assay; format: cell-based; settings: 48 h (or 24 h)
# Procedure: (§1) In vitro biological evaluation […]
# WST-1 assay (Roche Diagnostics International AG, Rotkreuz, Schweiz) was performed according to manufacturer’s protocol and as described previously. In brief, HepG2 cells were seeded in DMEM high glucose, supplemented with SP (1 mM), penicillin (100 U/mL), streptomycin (100 µg/mL) and 10% FCS in 96-well plates (3∙10^4 cells/well). After 24 h, medium was changed to DMEM high glucose, supplemented with penicillin (100 U/mL), streptomycin (100 µg/mL) and 1% charcoal stripped FCS and cells were incubated with 4 or 16 (final […]
# and DMEM/1% DMSO as negative controls. After 48 h (or 24 h), WST reagent (Roche Diagnostics International AG) was added to each well according to manufacturer’s instructions. After 45 min incubation, absorption (450 nm/ reference: 620 nm) was determined with a Tecan Infinite M200 luminometer (Tecan Deutschland GmbH). Each experiment was repeated at least three times in triplicates. […]
# CaMKK2 = experiment: Kinase inhibition assay (radiometric or HTRF); format: biochemical; settings: 20 µM
# RXRα = test system: T1, RXRα; experiment: Gal4-DBD-RXRα-LBD hybrid reporter gene assay; format: cell-based, human
# T1 construct: expressed in transfected cells; host or cells: HEK293T
# Source text: The Gal4-fusion receptor plasmids pFA-CMV-hPPARα-LBD[34], pFA-CMV-hPPARγ-LBD[34], pFA-CMV-hPPARδ-LBD[34], pFA-CMV-hLXRα-LBD[35], pFA-CMV-hLXRβ-LBD[35], pFA-CMV-hRXRα-LBD[36], pFA-CMV-hRXRβ-LBD[36], pFA-CMV-hRXRγ-LBD[36], pFA-CMV-hRARα-LBD[36], pFA-CMV-hRARβ-LBD[36], pFA-CMV-hRARγ-LBD[36], pFA-CMV-hVDR-LBD[36] and pFA-CMV-hCAR-LBD[36] coding for the hinge region and ligand binding domain (LBD) of the canonical isoform of the respective nuclear receptor have been reported previously. pFR-Luc (Stratagene) was used as reporter plasmid and pRL-SV40 (Promega) for normalization of transfection efficiency and cell growth.
# HEK293T cells were grown in DMEM high glucose, supplemented with 10% FCS, sodium pyruvate (1 mM), penicillin (100 U/mL) and streptomycin (100 μg/mL) at 37 °C and 5% CO2. The day before transfection, HEK293T cells were seeded in 96-well plates (2.5·10^4 cells/well). Before transfection, medium was changed to Opti-MEM without supplements. Transient transfection was carried out using Lipofectamine LTX reagent (Invitrogen) according to the manufacturer’s protocol with pFR-Luc (Stratagene), pRL-SV40 (Promega) and pFA-CMV-hNR-LBD. […] Luminescence was measured with an Infinite M200 luminometer (Tecan Deutschland GmbH) or a Tecan Spark 10 M luminometer (Tecan). […]
# c-Kit = experiment: Kinase inhibition assay (radiometric or HTRF); format: biochemical
# PDGF-Rα = experiment: Kinase inhibition assay (radiometric or HTRF); format: biochemical
# [1] = Metabolism assay (liver microsomes); format: in vitro ADME, Sprague−Dawley rats; settings: rat liver microsomes, 10 μM
# Procedure: as §1
# MgCl2). After 5 min, the reaction was started by the addition of 13 μL of microsome mix from the liver of Sprague−Dawley rats (Invitrogen; 20 mg protein/mL in 0.1 M phosphate buffer) in a shaking water bath at 37 °C.
# The reaction was stopped by addition of 250 μL of ice-cold methanol at 0, 15, 30 and 60 min. The samples were diluted with 250 μL of DMSO and centrifuged at 10000 g for 5 min at 4 °C. The supernatants were analyzed and test compound was quantified by HPLC: mobile phase: MeOH 83%/H2O 17%/formic acid 0.1%; flow-rate:
# 1 mL/min; stationary phase: MultoHigh Phenyl phase, 5 μm, 250 × 4, precolumn, phenyl, 5 μm, 20 × 4; detection wavelength: 330 and 254 nm; injection volume: 50 μL. Control samples were performed to check the stability of 4 or 16 in the reaction mixture: first control was without NADPH, which is needed for the enzymatic activity of the microsomes, second control was with inactivated microsomes (incubated for 20 min at 90 °C), third control was […]
# quantified by an external calibration curve, where data are expressed as means ± SEM of single determinations […]
# obtained in three independent experiments. […]
# as mean percent of remaining compound ± SEM; n=3): 4: 0 min: 100 ± 0%, 15 min: 86 ± 3%, 30 min: 74 ± 1%,
# TGR5 = test system: T2, TGR5; experiment: TGR5 assay (Eurofins); format: cell-based; settings: 1 and 10 µM
# T2 construct: Eurofins (Brussels, Belgium)
# PKA = test system: PKA; parameters: method as in doi:10.1016/S0960-894X(96)00601-4, PMID 11162439; settings: cited from earlier work
# AMPKα2 = experiment: Kinase inhibition assay (radiometric or HTRF); format: biochemical; settings: 20 µM
# AMPKα1 = experiment: Kinase inhibition assay (radiometric or HTRF); format: biochemical; settings: 20 µM
# TAK1 = experiment: Kinase inhibition assay (radiometric or HTRF); format: biochemical; settings: 20 µM
# human FXR = molecular target: T3, human FXR (Homo sapiens, UniProt Q96RI1); experiment: Full-length FXR transactivation (reporter gene) assay in HeLa cells; format: cell-based; settings: for Emax: HeLa; for EC50: read-out: hFXR: EC50; for FXR modulatory potency in words: SAR discussion
# T3 construct: expressed in transfected cells; host or cells: HeLa
# T3 sequence (Q96RI1 1-486): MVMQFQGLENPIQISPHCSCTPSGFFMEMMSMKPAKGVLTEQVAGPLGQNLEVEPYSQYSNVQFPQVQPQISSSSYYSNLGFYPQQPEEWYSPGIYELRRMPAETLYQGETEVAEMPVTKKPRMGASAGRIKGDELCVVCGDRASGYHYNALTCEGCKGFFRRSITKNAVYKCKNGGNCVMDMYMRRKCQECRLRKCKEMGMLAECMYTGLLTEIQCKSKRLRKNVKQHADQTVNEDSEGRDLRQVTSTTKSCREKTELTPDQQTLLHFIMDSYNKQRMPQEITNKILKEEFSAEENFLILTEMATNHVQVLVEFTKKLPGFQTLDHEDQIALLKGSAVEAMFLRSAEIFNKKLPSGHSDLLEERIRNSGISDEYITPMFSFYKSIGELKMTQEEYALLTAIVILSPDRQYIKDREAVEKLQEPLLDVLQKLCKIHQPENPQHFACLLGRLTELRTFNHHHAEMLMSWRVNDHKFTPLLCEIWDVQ
# T3 sequence (P19793 1-462 partner): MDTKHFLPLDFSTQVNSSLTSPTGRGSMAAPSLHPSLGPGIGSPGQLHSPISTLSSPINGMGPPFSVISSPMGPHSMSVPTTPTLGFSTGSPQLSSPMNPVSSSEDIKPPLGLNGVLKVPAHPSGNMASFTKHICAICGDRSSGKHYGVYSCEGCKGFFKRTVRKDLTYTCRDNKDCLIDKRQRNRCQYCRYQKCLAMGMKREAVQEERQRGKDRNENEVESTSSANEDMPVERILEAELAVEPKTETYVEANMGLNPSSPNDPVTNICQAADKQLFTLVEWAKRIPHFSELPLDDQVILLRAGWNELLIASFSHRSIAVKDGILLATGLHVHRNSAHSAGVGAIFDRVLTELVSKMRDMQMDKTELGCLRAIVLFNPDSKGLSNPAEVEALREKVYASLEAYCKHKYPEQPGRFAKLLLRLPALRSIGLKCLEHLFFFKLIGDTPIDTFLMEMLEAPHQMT
# [2] = full-length reporter gene assay, HeLa cells, mean ± SEM, n ≥ 3
# [3] = full-length reporter gene assay
structure (smiles),measurement,setting,value
"C[C@H](CCC(=O)O)[C@H]1CC[C@H]2[C@@H]3[C@H](O)C[C@@H]4C[C@H](O)CC[C@]4(C)[C@H]3CC[C@]12C [compound 1, chenodeoxycholic acid, reference compound]","WST-1, mean percent of untreated control","HepG2 cells; HepG2, 50 µM",88 ± 5%
"Cc1ccc(NC(=O)c2ccc(CN3CCN(C)CC3)cc2)cc1Nc1nccc(-c2cccnc2)n1 [compound 4, imatinib, reference compound]",Inhibition of CaMKK2,CaMKK2,slight inhibition
same,RXR agonistic activity (activation of RXRα-Gal4 chimera receptor),RXRα,neither activated
same,Inhibition of c-Kit,c-Kit,potent inhibitor
same,Inhibition of PDGF-Rα,PDGF-Rα,potent inhibitor
same,mean percent of remaining compound,[1]; 0 min,100 ± 0%
same,mean percent of remaining compound,[1]; 15 min,86 ± 3%
same,mean percent of remaining compound,[1]; 30 min,74 ± 1%
same,mean percent of remaining compound,[1]; 60 min,61 ± 3%
same,TGR5 modulation (agonistic or antagonistic activity),TGR5,no agonistic or antagonistic activity
same,Activity on PKA,PKA,inactive
same,Inhibition of AMPKα2,AMPKα2,did not markedly inhibit
same,Inhibition of AMPKα1,AMPKα1,did not markedly inhibit
same,Inhibition of TAK1,TAK1,slight inhibition
same,"WST-1, mean percent of untreated control","HepG2 cells; HepG2, 0.1 µM",98 ± 9%
same,"WST-1, mean percent of untreated control","HepG2 cells; HepG2, 1 µM",80 ± 9%
same,"WST-1, mean percent of untreated control","HepG2 cells; HepG2, 10 µM",78 ± 3%
same,"WST-1, mean percent of untreated control","HepG2 cells; HepG2, 50 µM",65 ± 1%
same,"WST-1, mean percent of untreated control","HepG2 cells; HepG2, 4 (10 µM) + 1 (50 µM)",77 ± 7%
CC(=O)Nc1ccc(C)c(Nc2nccc(-c3cccnc3)n2)c1.CC(=O)Nc1ccc(C)c(Nc2nccc(-c3cccnc3)n2)c1.CS(=O)(=O)O.CS(=O)(=O)O.CS(=O)(=O)O.CS(=O)(=O)O.O [compound 7],hFXR: EC50,human FXR; [2],inactive
CS(=O)(=O)O.CS(=O)(=O)O.CS(=O)(=O)O.CS(=O)(=O)O.Cc1ccc(NC(=O)c2ccccc2)cc1Nc1nccc(-c2cccnc2)n1.Cc1ccc(NC(=O)c2ccccc2)cc1Nc1nccc(-c2cccnc2)n1.O [compound 8],Emax,human FXR; read-out: hFXR: max. rel. act.,9%
same,EC50,human FXR; [2],0.45 ± 0.02 µM
same,FXR modulatory potency in words,human FXR; [3],submicromolar
CS(=O)(=O)O.CS(=O)(=O)O.CS(=O)(=O)O.CS(=O)(=O)O.Cc1ccc(NC(=O)c2ccc3ccccc3c2)cc1Nc1nccc(-c2cccnc2)n1.Cc1ccc(NC(=O)c2ccc3ccccc3c2)cc1Nc1nccc(-c2cccnc2)n1.O.O.O [compound 9],Emax,human FXR; read-out: hFXR: max. rel. act.,7.1%
same,EC50,human FXR; [2],0.46 ± 0.01 µM
same,FXR modulatory potency in words,human FXR; [3],submicromolar
Cc1ccc(NC(=O)c2ccncc2)cc1Nc1nccc(-c2cccnc2)n1 [compound 10],Emax,human FXR; read-out: hFXR: max. rel. act.,11.7%
same,EC50,human FXR; [2],3.5 ± 0.2 µM
Cc1ccc(C(=O)Nc2ccc(C)c(Nc3nccc(-c4cccnc4)n3)c2)cc1 [compound 11],Emax,human FXR; read-out: hFXR: max. rel. act.,8.1%
same,EC50,human FXR; [2],0.051 ± 0.001 µM
CCc1ccc(C(=O)Nc2ccc(C)c(Nc3nccc(-c4cccnc4)n3)c2)cc1.CS(=O)(=O)O.CS(=O)(=O)O.O [compound 12],Emax,human FXR; read-out: hFXR: max. rel. act.,7.9%
same,EC50,human FXR; [2],0.0064 ± 0.0004 µM
same,FXR modulatory potency in words,human FXR; [3],single-digit nanomolar activity
Cc1ccc(NC(=O)c2ccc(C(C)(C)C)cc2)cc1Nc1nccc(-c2cccnc2)n1 [compound 13],Emax,human FXR; read-out: hFXR: max. rel. act.,8.6%
same,EC50,human FXR; [2],0.58 ± 0.07 µM
Cc1ccc(NC(=O)c2ccc(-c3ccccc3)cc2)cc1Nc1nccc(-c2cccnc2)n1 [compound 14],Emax,human FXR; read-out: hFXR: max. rel. act.,7.1%
same,EC50,human FXR; [2],0.13 ± 0.02 µM
COc1ccc(C(=O)Nc2ccc(C)c(Nc3nccc(-c4cccnc4)n3)c2)cc1 [compound 15],Emax,"human FXR; relative to FXR full agonist 3 at 3 µM, mean ± SEM, n ≥ 3, read-out: hFXR: max. rel. act. (converted)",8.4%
same,EC50,human FXR; [2],1 ± 0.1 µM
"Cc1ccc(N)cc1Nc1nccc(-c2cccnc2)n1 [compound 17, reference compound]",Emax,human FXR; read-out: hFXR: max. rel. act.,9.2%
same,EC50,human FXR; [2],17.8 ± 1.1 µM

# Source: paper PMC5931576, “Allosteric modulation of the farnesoid X receptor by a small molecule” (Scientific Reports, 2018)
